In USRE37781E1, “Substituted cyclic carbonyls and derivatives thereof useful as retroviral protease inhibitors” (DuPont Pharmaceuticals Company, priority 1991, dated 2002):
pKi: −log10 of the molar value. Counter-ions that a name gives are not always drawn. Like-named read-outs stand apart in the source and are kept apart here. Blank lines part the entries; values can stand above or below the compound they belong to.

What was measured:
[1] = biological target: single-chain tethered dimer of HIV protease (Human immunodeficiency virus 1, UniProt P04585); assay: biochemical; assay type: biochemical; set-up: fused on or other part: A second copy of the same protease unit is joined to the first by a short peptide tether, giving one polypeptide
HIV-1 (RF) in MT-2 cells = assay: microbe, parasite or virus in culture; assay type: cell-based
In short: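 Read-out: gag and pol viral RNA captured by 5′-biotinylated oligonucleotides on streptavidin-coated wells, detected with alkaline phosphatase-linked reporter oligonucleotides, calibrated against BH10 in vitro transcripts. Virus stocks (RF, MN, IIIB) come from H9 cultures; MT-2 host cells kept in RPMI 1640, 5% FCS.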

[2] = read-out: HPLC K1, Table 2d, class symbols
[3] = Human immunodeficiency virus 1, MT2, 48 h, Table 2d, class symbols, read-out: IC90
[4] = Human immunodeficiency virus 1, MT2, 48 h, Table 2d, HIV RNA assay, read-out: IC90
[5] = Table 2d, HIV protease inhibition, HPLC method, read-out: HPLC K1
[6] = Table 2d, class symbols, read-out: HPLC K1

Structure (SMILES): O=C1N(Cc2cccc(-c3ncc[nH]3)c2)C(Cc2ccccc2)C(O)C(O)C(Cc2ccccc2)N1Cc1cccc(-c2ncc[nH]2)c1 (centres unmarked) (as salt: hydrochloride) [Example 15BS]
melting point: 191 to 194 °C

Structure (SMILES): CCCCCCC1C(O)C(O)C(CCCCCC)N(Cc2ccccc2)C(=O)N1Cc1ccccc1 (centres unmarked) [Example 16AI]
melting point: 79 to 82 °C
pKi ([1]; read-out: K4 HPLC, Table 2e): 6.00 to 8.00

Structure (SMILES): CNc1cccc(CN2C(=O)N(Cc3ccc(CO)cc3)C(Cc3ccccc3)C(O)C(O)C2Cc2ccccc2)c1 (centres unmarked) (as salt: HCl) [15M]
melting point: 107.6 °C

Structure (SMILES): O=C1N(Cc2cccc(OCc3ccccc3)c2)C(Cc2ccccc2)C(O)C(O)C(Cc2ccccc2)N1Cc1cccc([N+](=O)[O-])c1 (centres unmarked) (hydrate or solvate) [11P]
melting point: 173 to 176 °C

Structure (SMILES): NCC(=O)Nc1cccc(CN2C(=O)N(Cc3cccc(NC(=O)CN)c3)C(Cc3ccccc3)C(O)C(O)C2Cc2ccccc2)c1 (centres unmarked) (as salt: HCl) [15R]
melting point: 233.7 °C

Structure (SMILES): Nc1cccc(CN2C(=O)N(CC3CC3)C(Cc3ccccc3)C(O)C(O)C2Cc2ccccc2)c1 (centres unmarked) (as salt: HCl) [15G]
melting point: 108.9 °C

Structure (SMILES): O=C1N(Cc2cccc(OCCO)c2)C(Cc2ccccc2)C(O)C(O)C(Cc2ccccc2)N1Cc1cccc(OCCO)c1 (centres unmarked) (hydrate or solvate) [10Y]
melting point: 245 to 247 °C

Structure (SMILES): CNC(=O)Nc1cccc(CN2C(=O)N(Cc3cccc(NC(=O)NC)c3)C(Cc3ccccc3)C(O)C(O)C2Cc2ccccc2)c1 (centres unmarked) [15L]
melting point: 173.7 °C
pKi [1, 2]: > 8.00

IC90 (HIV-1 (RF) in MT-2 cells; [3]): < 10 µg/mL
melting point: 200 to 202 °C
Structure (SMILES): CC(=NO)c1cccc(CN2C(=O)N(Cc3cccc(C(C)=NO)c3)C(Cc3ccccc3)C(O)C(O)C2Cc2ccccc2)c1 (centres unmarked) [Example 9Q]

Structure (SMILES): O=C1N(Cc2cccc(-c3cc[nH]n3)c2)C(Cc2ccccc2)C(O)C(O)C(Cc2ccccc2)N1Cc1cccc(-c2cc[nH]n2)c1 (centres unmarked) (as salt: HCl) [Example 15YM]
melting point: 195 to 197 °C

Structure (SMILES): CCCCCC1C(O)C(O)C(CCCCC)N(Cc2ccccc2)C(=O)N1Cc1ccccc1 (centres unmarked) [Example 16AH]
melting point: 94 to 97 °C
pKi ([1]; read-out: K4 HPLC, Table 2e): 6.00 to 8.00

melting point: 114 °C
Structure (SMILES): N#CN=C1N(Cc2cccc([N+](=O)[O-])c2)[C@H](Cc2ccccc2)[C@H](O)[C@@H](O)[C@@H](Cc2ccccc2)N1Cc1cccc([N+](=O)[O-])c1

Structure (SMILES): O=C1N(Cc2cccc(-c3cc[nH]n3)c2)C(Cc2ccccc2)C(O)C(O)C(Cc2ccccc2)N1Cc1cccc(-c2cc[nH]n2)c1 (centres unmarked) [Example 15YL]
IC90 (HIV-1 (RF) in MT-2 cells; [4]): < 10 µg/mL
melting point: 208 to 210 °C

Structure (SMILES): O=C1N(Cc2cccc(CO)c2)C(Cc2ccccc2)C(O)C(O)C(Cc2ccccc2)N1Cc1ccccc1O (centres unmarked) [15EB]
IC90 (HIV-1 (RF) in MT-2 cells; Table 2d, HIV RNA assay): +++ (+++=<10 μg/mL)
pKi [1, 5]: 6.00 to 8.00

Structure (SMILES): O=C1N(Cc2cnccc2Cl)C(Cc2ccccc2)C(O)C(O)C(Cc2ccccc2)N1Cc1cnccc1Cl (centres unmarked) [Example 13Z]
IC90 (HIV-1 (RF) in MT-2 cells; Table 2d, class symbols): +++ (+++=<10 μg/mL)
pKi [1, 6]: 6.00 to 8.00

Structure (SMILES): CCCCN1[C@H](Cc2ccccc2)[C@H](O)[C@@H](O)[C@@H](Cc2ccccc2)N(CCCC)P1(=O)Oc1ccccc1 (some centres unmarked) [Example 28D]
IC90 (HIV-1 (RF) in MT-2 cells; Table 2r): +++ (+++=<10 μg/mL)
pKi ([1]; Table 2r, read-out: Ki HPLC): 6.00 to 8.00

Structure (SMILES): O=C1N(CC2CC2)C(Cc2ccccc2)C(O)C(O)C(Cc2ccccc2)N1CC1CC1 (centres unmarked) [Example 13J]
IC90 (HIV-1 (RF) in MT-2 cells; Table 2d, class symbols): +++ (+++=<10 μg/mL)
pKi [1, 6]: > 8.00

Structure (SMILES): O=C(NCc1ccccn1)c1cccc(CN2C(=O)N(Cc3cccc(-c4cc[nH]n4)c3)C(Cc3ccccc3)C(O)C(O)C2Cc2ccccc2)c1 (centres unmarked) [15CB]
IC90 (HIV-1 (RF) in MT-2 cells; Table 2d, HIV RNA assay): +++ (+++=<10 μg/mL)
pKi [1, 5]: > 8.00

Structure (SMILES): O=C1N(Cc2cccc(Cn3ccnc3)c2)C(Cc2ccccc2)C(O)C(O)C(Cc2ccccc2)N1Cc1cccc(Cn2ccnc2)c1 (centres unmarked) [Example 15XG]
IC90 (HIV-1 (RF) in MT-2 cells; [4]): < 10 µg/mL
pKi ([1]; read-out: HPLC K1, Table 2d, HIV protease inhibition, HPLC method): > 8.00

Structure (SMILES): CC(CCCCN1C(=O)N(CCCCC(C)=NO)C(Cc2ccccc2)C(O)C(O)C1Cc1ccccc1)=NO (centres unmarked) [Example 15WC]
IC90 (HIV-1 (RF) in MT-2 cells; [3]): < 10 µg/mL
pKi [1, 2]: 6.00 to 8.00

Structure (SMILES): O=S1(=O)N(CCCCCO)C(Cc2ccccc2)C(O)C(O)C(Cc2ccccc2)N1Cc1ccc(CO)cc1 (centres unmarked) [23AG]
IC90 (HIV-1 (RF) in MT-2 cells; Table 2m): +++ (+++=<10 μg/mL)
pKi ([1]; Table 2m, read-out: HPLC Ki): > 8.00

Structure (SMILES): O=C1N(Cc2cnccc2O)C(Cc2ccccc2)C(O)C(O)C(Cc2ccccc2)N1Cc1cnccc1O (centres unmarked) [Example 14C]
IC90 (HIV-1 (RF) in MT-2 cells; Table 2d, class symbols): + (+=>100 μg/mL)
pKi [1, 6]: 6.00 to 8.00

Structure (SMILES): Nc1cccc(CN2C(Cc3ccccc3)C(O)C(O)C(Cc3ccccc3)N(Cc3cccc(N)c3)S2(=O)=O)c1 (centres unmarked) [23M]
IC90 (HIV-1 (RF) in MT-2 cells; Table 2m): +++ (+++=<10 μg/mL)
pKi ([1]; Table 2m, read-out: HPLC Ki): > 8.00
